pKi: −log10 of the molar value.
Tests used:
[1] = biological target: T1, deoxycytidine kinase (Homo sapiens, UniProt P27707); assay: thermal shift assay (DSLS), concentration-dependent; assay type: binding; conditions: read-out: 500 μM NA (+1 mM ATP)
T1 construct: gene DCK

[2] = biological target: T2, Guanine deaminase (Homo sapiens, UniProt Q9Y2T3); assay: as above; assay type: binding
T2 construct: gene GDA
T2 sequence (Q9Y2T3 1-454): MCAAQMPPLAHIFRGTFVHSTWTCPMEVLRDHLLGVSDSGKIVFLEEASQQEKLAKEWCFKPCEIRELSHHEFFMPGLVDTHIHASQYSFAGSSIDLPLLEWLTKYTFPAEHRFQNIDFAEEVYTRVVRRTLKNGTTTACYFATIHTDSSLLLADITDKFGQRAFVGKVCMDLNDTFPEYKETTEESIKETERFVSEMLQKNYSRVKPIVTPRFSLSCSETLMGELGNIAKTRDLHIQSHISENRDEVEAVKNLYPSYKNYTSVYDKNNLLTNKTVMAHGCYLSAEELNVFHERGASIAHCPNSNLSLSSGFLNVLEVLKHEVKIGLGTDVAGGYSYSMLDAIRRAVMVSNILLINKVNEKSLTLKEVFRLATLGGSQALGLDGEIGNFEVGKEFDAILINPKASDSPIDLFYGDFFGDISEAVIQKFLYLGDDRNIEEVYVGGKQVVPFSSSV

[3] = biological target: T3, Uridine phosphorylase 1 (Homo sapiens, UniProt Q16831); assay: as above; assay type: binding; conditions: read-out: delta_Tm
T3 construct: gene UPP1
T3 sequence (Q16831 whole entry): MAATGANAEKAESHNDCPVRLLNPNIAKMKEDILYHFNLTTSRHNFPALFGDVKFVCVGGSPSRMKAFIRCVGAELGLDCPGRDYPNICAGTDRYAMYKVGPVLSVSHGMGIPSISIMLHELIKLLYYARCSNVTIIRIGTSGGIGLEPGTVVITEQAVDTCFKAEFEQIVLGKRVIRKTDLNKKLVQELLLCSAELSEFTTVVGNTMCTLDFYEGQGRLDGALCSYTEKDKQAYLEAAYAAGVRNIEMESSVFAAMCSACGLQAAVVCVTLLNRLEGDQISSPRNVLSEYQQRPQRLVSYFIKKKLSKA

[4] = biological target: T3, Uridine phosphorylase 1; assay: thermal shift assay (DSLS), concentration-dependent; enhanced by […] ribose-1-phosphate; assay type: binding; conditions: read-out: ΔTagg (NA+R1P)
[5] = biological target: T2, Guanine deaminase; assay: co-crystal structure at […] Å; thermal shift (DSLS), concentration-dependent; assay type: binding; conditions: read-out: delta_Tm
[6] = biological target: T3, Uridine phosphorylase 1; assay: HPLC enzyme kinetics with uridine (Lineweaver-Burk); also thermal shift ([…]°C at […]); assay type: biochemical

T1 sequence (P27707 whole entry): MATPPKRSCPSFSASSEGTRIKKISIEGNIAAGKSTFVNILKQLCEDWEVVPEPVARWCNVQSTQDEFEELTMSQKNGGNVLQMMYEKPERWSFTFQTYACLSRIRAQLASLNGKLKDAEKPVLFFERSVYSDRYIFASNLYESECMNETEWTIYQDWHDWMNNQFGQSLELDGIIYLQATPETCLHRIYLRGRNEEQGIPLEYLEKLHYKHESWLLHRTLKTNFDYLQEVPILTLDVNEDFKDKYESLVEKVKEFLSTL

Structure (SMILES): Nc1ncn([C@H]2C[C@H](O)[C@@H](CO)O2)c(=O)n1 [Decitabine]
- ΔTm at 500 µM [1]: 7.29 °C

Structure (SMILES): Nc1ccn([C@@H]2O[C@H](CO)[C@@H](O)C2(F)F)c(=O)n1 [Gemcitabine]
- ΔTm at 500 µM [1]: 5.22 °C

Structure (SMILES): Nc1nc2c(ncn2COCCO)c(=O)[nH]1 [aciclovir]
- thermal shift assay (DSLS), concentration-dependent [2]: Interactions were detected between GDA and valaciclovir, aciclovir, penciclovir, ganciclovir, thioguanine and mercaptopurine

Structure (SMILES): O=c1[nH]c(=O)n([C@H]2C[C@H](O)[C@@H](CO)O2)cc1I [idoxuridine]
- ΔTm at 500 µM [3]: 1.72 °C

Structure (SMILES): Nc1nc2c(ncn2CCC(CO)CO)c(=O)[nH]1 [penciclovir]
- thermal shift assay (DSLS), concentration-dependent [2]: Thioguanine, ganciclovir, aciclovir, penciclovir, valaciclovir, flucytosine and idoxuridine showed concentration-dependent stabilization of GDA

Structure (SMILES): Nc1nc2nc[nH]c2c(=S)[nH]1 [thioguanine]
- thermal shift assay (DSLS), concentration-dependent [2]: followed in decreasing order by thioguanine, acyclovir, penciclovir, ganciclovir and mercaptopurine

Structure (SMILES): O=c1[nH]c(=O)n([C@H]2C[C@H](O)[C@@H](CO)O2)cc1C(F)(F)F [trifluridine]
- ΔTm at 500 µM [4]: 3.78 °C

Structure (SMILES): CC(C)[C@H](N)C(=O)OCCOCn1cnc2c(=O)[nH]c(N)nc21 [valaciclovir]
- ΔTm at 1000 µM [5]: ~7 °C

Structure (SMILES): Nc1ncnc2c1ncn2[C@@H]1O[C@H](CO)[C@@H](O)[C@@H]1O [vidarabine]
- pKi [6]: 3.41
